Format in all cases: biochemical
Assay [1] has as its system mammalian vacuolar-type (H+)-ATPase (from chromaffin granule membranes). As to the kind of experiment: mammalian vacuolar-type (H+)-ATPase inhibition, side-by-side test. To be noted: mammalian versus fungal enzyme. The source says:
The inhibitory data were obtained using the same procedures and biological preparations described in Bowman et al., Proc. Natl. Acad. Sci. USA, 85, 7972-7976 (November 1988).

The test system of assay [2] is vacuolar-type (H+)-ATPase derived from human kidney cells (hK). As to the kind of experiment: vacuolar-type (H+)-ATPase inhibition assay, membrane vesicles (hK). Particulars: bafilomycin-sensitive activity; oligomycin 5 μg/ml and vanadate 1 mM present; 37°, 30 minutes. As to the method:
(§1) Inhibition of bafilomycin-sensitive vacuolar-type (H+)-ATPase activity was measured in partially purified membrane vesicle preparations from human osteoclastoma cells (hOc), human renal cortical cells (hK), and macrophage cells (J774). The vesicles were prepared by appropriate adaptations of methods described in Gagliardi et al., J. Med. Chem., 41, 1568-1573 (1998); and Gagliardi et al., J. Med. Chem., 41, 1883-1893 (1998).
(§2) Vacuolar-type (H+)-ATPase assays were performed in the presence of oligomycin (5 μg/ml) and vanadate (1 mM) as inhibitors of F- and P-ATPases, respectively. A […] method was used to quantitate the residual bafilomycin-sensitive vacuolar-type (H+)-ATPase activity (see Chan et al., Anal. Biochem., 157, 375-380 (1986)). The assay measures the release of inorganic phosphate from ATP at 37° during 30 minutes of incubation. The reaction is initiated by the addition of MgSO4 ([…]).

The subject of assay [3] is vacuolar-type (H+)-ATPase derived from macrophage cells (J774). The experiment in a line: vacuolar-type (H+)-ATPase inhibition assay, membrane vesicles (J774). To be noted: bafilomycin-sensitive activity; oligomycin 5 μg/ml and vanadate 1 mM present; 37°, 30 minutes. As to the method: as §1, §2

For orientation: IC50 means the concentration that inhibits the measured activity by half. Low values mean higher potency, high ones lower potency. For `CO/N=C/C=C\C(=O)N/C=C/CC1CC(=O)OC(C)/C=C/C(O)/C(C)=C\Cc2cccc(O)c2C(=O)O1` (stereo not drawn) [lobatamide A], the “selectivity for mammalian versus fungal vacuolar-type (H+)-ATPase” value in assay [1] was “highly selective”. Besides, the results for the IC50 in assay [2] and in assay [3] were 1.8 nM and 2.8 nM, respectively.

The record behind these values is patent US7381744B1, “Method of treating osteoporosis comprising vacuolar-type (H+)-ATPase-inhibiting compounds” (The United States of America as represented by the …, priority 1999, dated 2008).
